Reference: US8563583B2, “Pyridone analogs useful as melanin concentrating hormone receptor-1 antagonists” (Bristol-Myers Squibb Company, priority 2009, dated 2013)
Structures can show the parent of a compound that is named as a salt.

target: human melanin concentrating hormone receptor (MCHR1) (Homo sapiens (Human), UniProt Q99705, A5T/E4Q); test: Radioligand binding assay for assessment of MCHR1 activity; conditions: competition with [Phe13,[125I]Tyr19]-MCH; membranes of HEK-293 cells expressing mutated hMCHR1
Sequence (Q99705 whole entry E4Q/A5T): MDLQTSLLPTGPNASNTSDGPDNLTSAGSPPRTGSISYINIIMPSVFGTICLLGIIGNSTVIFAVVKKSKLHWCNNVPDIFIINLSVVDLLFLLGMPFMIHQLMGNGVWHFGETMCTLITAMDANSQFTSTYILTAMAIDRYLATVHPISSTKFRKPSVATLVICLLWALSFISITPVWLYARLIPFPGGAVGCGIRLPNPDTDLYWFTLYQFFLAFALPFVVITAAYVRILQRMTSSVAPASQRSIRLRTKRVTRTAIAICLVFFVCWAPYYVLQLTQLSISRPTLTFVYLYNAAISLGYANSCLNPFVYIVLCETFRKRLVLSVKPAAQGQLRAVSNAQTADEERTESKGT
Procedure: Compounds of Formula I were initially characterized in an in vitro binding assay to determine their Ki or ability to antagonize binding of a peptide agonist to the human melanin concentrating hormone receptor (MCHR1). Representative compounds of the present invention had the following Ki values:
Membranes from stably transfected HEK-293 cells expressing a mutated (E4Q, AST) hMCHRI receptor were prepared by dounce homogenization and differential centrifugation. Binding experiments were carried out with 0.5-1.0 ug of membrane protein incubated in a total of 0.2 ml in 25 mM HEPES (pH 7.4) with 10 mM MgCl2, 2 mM EGTA, and 0.1% BSA (Binding Buffer) for 90 min. For competition binding assays, reactions were carried out in the presence of with 0.06-0.1 nM [Phe^13, [^125I]Tyr^19]-MCH and increasing concentrations of unlabeled test molecules. Reactions were terminated by rapid vacuum filtration over 96 well-GFC Unifilter plates pre-coated with 0.075 ml binding buffer containing 1% BSA, and washed 3 times with 0.4 ml of Phospho-buffered Saline (pH 7.4) containing 0.01% TX-100. Filters were dried; 0.05 ml microscint 20 was added to each well and radioactivity was subsequently quantified by scintillation counting on a TOPCOUNT® microplate scintillation counter (Packard). Inhibitory constants were determined by nonlinear least squares analysis using a four parameter logistic equation.

Row | Structure (SMILES) | Ki [nM]
1 | COc1cc(-n2ccc(-c3ccc(C(F)(F)F)cc3)cc2=O)ccc1OCC(C)(C)O [Example B-2] | 7
2 | COc1cc(-n2ccc(-c3ccc(OC(F)(F)F)cc3)cc2=O)ccc1OCCO [Example C-1] | 3
3 | COc1cc(-n2ccc(CSc3ccc(Cl)cc3)cc2=O)ccc1OCC(C)(C)O [Example A-29] | 29
4 | COc1cc(-n2ccc(CNc3ccc(Cl)cc3)cc2=O)ccc1OCC(C)(C)O [Example A-33] | 500
5 | COc1cc(-n2ccc(COc3ccccc3)cc2=O)ccc1OCC(C)(C)O [Example A-6] | 2340
6 | COc1cc(-n2ccc(SCc3ccc(Cl)cc3)cc2=O)ccc1OCC(C)(C)O [Example D-4, 4-(4-Chlorobenzylthio)-1-(4-(2-hydroxy-2-methylpropoxy)-3-methoxyphenyl)pyridin-2(1H)-one] | 4

system: SPRAGUE DAWLEY® rats; test: Assessment of in vivo MCHR1 activity: weight change in rats given a choice of chow and high fat/high sucrose diet; design: species or system rat; conditions: 30 mg/kg p.o. daily for four days
Procedure: Male SPRAGUE DAWLEY® (CD, Charles River Breeding Laboratory) rats weighing approximately 240 grams were placed in individual plastic cages with ALPHADRI® bedding. The room was maintained at 72° F. and 50% humidity, and a 12/12 light dark cycle with lights out at 1600 hours. The rats were conditioned for 5 days prior to the start of the study to having a choice of foods.
Baseline body weight was measured prior to drug treatment on day 0 of the study. Baseline food consumption was the average of the 3 days prior to the first drug treatment. Drug was administered daily p.o. at 2.0 ml/kg at 1500 hours beginning on day 0 and continuing daily through day 4 as a suspension in 0.5% methyl cellulose, 0.1% Tween 80 in water at 3.0, 10 and 30 mg/kg p.o. All data were evaluated using ANOVA and Fishers PLSD statistics.

Row | Structure (SMILES) | % Weight change versus Control after daily Administration of drug at 30 mg/kg for four days [%]
7 | COc1cc(-n2ccc(OCc3ccc(Cl)cc3)cc2=O)ccc1OCC(C)(C)OC(=O)CN [Example P-3] | 6.1
8 | COc1cc(-n2ccc(COc3ccc(Cl)cc3)cc2=O)ccc1OCC(C)(C)OC(=O)CN [Example P-1, 1-(4-(4-((4-Chlorophenoxy)methyl)-2-oxopyridin-1(2H)-yl)-2-methoxyphenoxy)-2-methylpropan-2-yl 2-aminoacetate hydrochloride] | 3.4
